From EP0470323A2, “New salts of the nicotinic acid with aminobenzylic compounds and their pharmaceutical use” (BROMLEY LIMITED, priority 1990, dated 1992)

Key:
red cells in the rat [1] = assay: Red cell adhesivity / filtration, Teitel method; assay type: in vivo
Text: (§1) steresis (Teiltel P.: Nouv. Rev. Franç. Hématol. 7, 195, 1967). Any alteration, almost undoubtely at the level of the red cell's membrane, cause some damaging variations of the red cell's elasticity thus making more difficult the passing through the capillary vessels having more reduced diameter, and therefore increasing the flow resistance in the peripheral vessels systems. In order to determine the effect caused by the compound according to the Example 1, on these features of the red cell, the method described by Schmidt, Schonbein and colleagues (Blut 26, 369, 1973) has been used.
(§2) In the circulatory flow, the above mentioned capillary vessels being excluded, the blood cells do normally circulate being attached between each other because of their adhesiveness. In order to study this adhesion force, the above mentioned Teitel method has been used. Male rats of 150 g body weight approximately have been employed, and they have been treated for three consecutive days with 0,5 mM/kg/os of the compound according to the Example 1, or otherwise Buflomedil, or even Pentosiphillin used as comparison substance. After the last treatment the animals, without eating from 18 hours, have been killed in a light ethereal anaesthesy and the blood was collected over an 0,2 molar EDTA (9 and 1 volumes respectively). The red cells filtering possibility, measured with the Teitel method, wherein the quantity of red cells passing, in high haematocritical conditions, through a paper filter with holes of 20-40 µm in a previously determined time, has been ascertained as follows: the blood was centrifuged for ten minutes at 2000 rpm in order to obtain the massing of the red cells, two ml of the blood collected as above were put into an upside down turned cone made with filtering paper, being previously wetted with a physiological solution. The volume passing through the filter in 2 - 4 - 8 and 16 minutes is then measured. The average filtration time T 1/2 is reckoned on semi-logarithmic paper by putting on the abscissae the logarithm of the time, and on the ordinates the percentage of blood filtered. In order to follow the Schmidt Schönbein method, the here after described proceeding has been performed: 0,2 ml of a suspension of red cells at 2% obtained by diluting the blood with the autological plasma, then it was placed into an appropriate device permitting to filter this blood through a filter (millipores) of 5 µm mashes at a filtration pressure of 50 mm water. With a chronometer one determines the time required for the passage of the whole sample through the filter.
At time same time, one measures, in the same conditions, the same parameter for a plasma sample. One calculates then the relative filtration time by dividing the time required to filter the diluted blood sample by the time being necessary to filter the plasma sample. For each group the average and the standard error of the individual data obtained was reckoned. The statistical evaluation was obtained by means of the Dunnett test.

red cells in the rat [2] = assay: Red cell deformability / filtration, Schmidt-Schönbein method; assay type: in vivo; details: dose 3 x 0,5 mM/kg/os
Text: as §1
as §2, with “The average filtration time T 1/2 is reckoned on semi-logarithmic paper by putting on the abscissae the logarithm of the time, and on the ordinates the percentage of blood filtered. In order to follow the Schmidt Schönbein method, the here after described proceeding has been performed: 0,2 ml of a suspension of red cells at 2% obtained by diluting the blood with the autological plasma, then it was placed into an appropriate device permitting to filter this blood through a filter (millipores) of 5 µm mashes at a filtration pressure of 50 mm water. With a chronometer one determines the time required for the passage of the whole sample through the filter.” left out

[3] = tested on: Central artery of a rabbit's ear; assay: In vitro antispastic action, adrenalin-induced spasm of the perfused isolated artery; details: for % inhibi-tions of the con-tractions: spasm induced by Adrenalin, n=4
Method: An "in vitro" method has been used, according to which the withdrawal of the central artery of a rabbit's ear with the relevant nervous connections and the equipment of an appropriate seat for secluded organs was designed (Fleckenstein A., British Journal of Pharmacology 7, 533, 1952).
On the artery they did install a three-ways tube, connected with a peristaltic pump and with a mercury manometer to record the perfusion pressure. The artery was perfused with a rebs liquid at the speed of 2,5 ml/minute. The contractions were induced by injecting into the vessel 0,1 ml adrenalin at the concentration of 1 mcg/ml. The compound according to the example 1 has been added to the bath at concentrations of 0,5 - 1 - 2 uM, five minutes before the adrenalin (four preparations per concentration). As comparison drugs, chlorhydra ted Buflomedil and Papaverin have been used. The activity of the material under investigation has been appreciated in terms of percentages referring to the concentration induced by the Adrenalin (and expressed with DE₅₀) and the relevant forbidding.

[4] = tested on: skin temperature of the mouse's paw; assay: Peripheral vessel-dilating activity in the mouse (skin temperature of hind paws); assay type: in vivo; details: for Temperature (°C) of the hind paws (n=10): intravenous, dose 0,030 mM/kg/iv; for Temperature (°C) of the hind paws: oral, dose 0,500 mM/kg/os
Method: The method of Richter W. (Acta Pharm. Toxicol. 21, 91; 1974) was used; it consists in determining, at fixed time intervals after the treatment, the skin temperature of the mouse's paw, by keeping the animals in rooms at a constant temperature of 21°C.
Some groups of ten male mouses each have been used; the weight of each animal was 30 g approximately.
The compound according to the Example 1 has been tested "per os" at three basic levels of the doses (0,125 - 0,25 - 0,5 mM/kg) and by intravenous injection at two dose levels (0,015 and 0,03 mM/kg), in comparison with one sole dose of Papaverin and chlorhydrated Buflomedil (0,5 mM/kg "per os" and 0,03m M/kg intravenous). The observation of the skin temperature at the mouse's paw was made before the treatment, 30, 60 and 120 minutes after the "per os" treatment, […] (A-Hl Ellab) connected with an Ellab electric recorder. Of each animal the temperature of both hind paws has been measured, and the values obtained have been averaged .

[5] = tested on: hypertrigliceridaemia from olive oil in the rats; assay: Hypertriglyceridaemia from olive oil in the rat (serum lactescence); assay type: in vivo; details: dose 2 mM/kg/os
Method: The method described by Zucker I.H. (Sci. Anal. Lab. 24, 114, 1972) has been followed.
Male rats have been used, whose body weight was 150-200 g. The animals were without eating with water "ad libitum" and all this beginning 24 hours before the experiment. The hyperlipaemia was induced by the administration of olive oil by mouth; its composition as to the fat acids was as follows: palmitic acid 10% palmitoleic acid 1%, stearic acid 3%, […] and linoleic acid 7% (all percentages are by weight). The quantity of olive oil administered, by means of a gastric probe, was 10 ml/kg. The treatments were made by finely pounding with a china mortar and by suspending in the olive oil the examined compounds. […] The positive control animals received only olive oil; moreover, there was also a group of negative control animals who received plain water in quantities of 10 ml/kg. Every three hours a group of rats (10) was killed in a light ethereal anaesthesia, in order to be able to appreciate the percentage of triglycerides in the blood. The animals were bled by cutting them the carotids and the blood was collected in plastic test-tubes, capacity 10 ml each, and was centrifuged for ten minutes at 3500 rpm. The evaluated parameter was the lactescence of the serum, which is directly proportional to the contents of kilomicrons and therefore of triglycerides (Zucker, see above the mention). The serum has been diluted 1:5 in a physiologic solution and was read at the spectrophotometer at […] against white (physiologic solution). From the individual optical Density (D.O.) data one could calculate for each group the average of the standard error. The statistical analysis was performed by means of the t of Dunnett.

[6] = tested on: Hypercholesterolaemia caused by Trit WR1339 in the mouses; assay: Hypercholesterolaemia of the mouse caused by Triton WR 1339; assay type: in vivo; details: dose 2 mM/kg per os
Method: The method described by Garattini S. (Arzneim,Forsch 9, 206; 1959) with some modifications has been followed.
The mouses used have been males of 22 to 28 grams body weight, on an empty stomach but with water "ad libitum" since 12 hours. The hyperlipidaemia was induced by means of an intraperitoneum administration of […] of Triton WR 1339, with dosage 300 mg/kg in a physiological solution. The subject products were administered at the same time in clear plain water, always in a volume of […] by means of a gastric probe. The animals were sacrified after 20 hours, by cutting them the carotids. The blood was collected in some plastic test-tubes, and was centrifuged at 3500 rpm for ten minutes. Thereafter the total cholesterol (Sornay R and colleagues, Arzeneim Forsch, 26,885 1976) and the total lipids (Chonhelmer R and colleagues, Biological Chemistry 106, 745, 1934) were determined.

[7] = tested on: Hypertriglyceridaemia caused by ethanole in the rats; assay: Hypertriglyceridaemia caused by ethanol in rats, activity at three dose levels; assay type: in vivo; details: rat
Text: (§3) For this test group the methods described by Sistori C.R. and colleagues (Atherosclerosis 30, 45; 1978) is followed.
(§4) The hypertriglyceridaemia has been induced into the male rats having a body weight of 160 - 170 g by giving them to drink, for 4 consecutive days, a solution of 10% ethanole in water.

[8] = tested on: Hypertriglyceridaemia caused by ethanole in the rats; assay: Hypertriglyceridaemia caused by ethanol in rats, duration of the effects; assay type: in vivo; details: rat, dose 1 mM/kg/os
Text: as §3, §4
In order to perform the particular kinetics of the compound in accordance with the example 1 following the instant invention, it was considered appropriate, anyway, to evaluate the duration of the hypolipaemizing effect in comparison to that of the nicotinic acid.
A group of normal animals was treated with the vehicle only and did serve as a negative control group.

[9] = tested on: aggregation of the platelets caused by the collagene; assay: Anti-aggregating ex vivo activity against collagen in the rat; details: rat, 1,00 mM/kg os for 4 days
Method: Six groups of 15 male rats of 200 - 250 g have been used.
The blood taken from the three rats of each group has been mixed and centrifuged during 6 minutes at 1400 rpm, at room temperature. After having taken the plasma full of platelets (PRP) the thereunder floating material has been centrifuged again (4000 rpm during 10 minutes) in order to have the plasma with few platelets (PPP) separated from the balance. The PRP has been diluted with a part of PPP in order to bring the number of platelets to 350 ± 50 x 10³/mm³. The aggregation has been evaluated in accordance with the method of Minsker D.H. and coll. (J. Pharmacol.Exp.Ther. 210 37 1979) by using an ELVI 840 two-channels aggregometer and an Omniscribe recorder B.500. A quantity of 0,25 ml PRP has been used, transferred into the aggregometer for two minutes at 37°C and stirred at 1000 rpm. The light intensity was arranged in such a way, to obtain 0% transmittance with the PRP and 100% with the PPP. After 2′ incubation, by means of microsyringe the collagene was added to the PRP in a volume quantity of 5 mcl with the final concentration of 4 mcg/ml.
From the aggregation trace of the recorder the following data have been evaluated: • a) latent time of the aggregation (seconds between the introductions of collagene and the starting of the aggregation) • b) transmittance increase percentage (maximum aggregation). The same proceeding was repeated for all animals, always by mixing the blood of three rats belonging to the same group and by obtaining in this manner five aggregation curves per group.

[10] = 0 minutes (before the treatment)
[11] = 20 hours after Triton WR 1339 i.p.
[12] = PRP 2 hours after last treatment, collagene 4 mcg/ml

CC(=O)CCCCn1c(=O)c2c(ncn2C)n(C)c1=O [pentossifillin]
Teitel method Δ % vs contr. (red cells in the rat [1]; dose 3 x 0,5 mM/kg/os): 40,1%
Teitel method T1/2 min. M ± E.S. (red cells in the rat [1]; dose 3 x 0,5 mM/kg/os (three consecutive days)): 2,18 ± 0,19 min.
Schmidt-Schönbein method Δ % vs contr. (red cells in the rat [2]): 52,8%

COc1ccc(Cc2nccc3cc(OC)c(OC)cc23)cc1OC [Papaverin, reference compound]
EC50 ([3]; Oryctolagus cuniculus, read-out: DE50): 760 nM
% inhibi-tions of the con-tractions ([3]; concentration 0,5 μ M): 33%
% inhibi-tions of the con-tractions ([3]; concentration 1,0 μ M): 64%
% inhibi-tions of the con-tractions ([3]; concentration 2,0 μ M): 81%
Temperature (°C) of the hind paws (n=10) [4, 10]: 24,5 ± 0,28 °C
Temperature (°C) of the hind paws (n=10) ([4]; 30 minutes from the treatment): 26,6 ± 0,25 °C
Temperature (°C) of the hind paws (n=10) ([4]; 60 minutes from the treatment): 25,7 ± 0,20 °C
Temperature (°C) of the hind paws (n=10) ([4]; 120 minutes from the treatment): 25,5 ± 0,23 °C
Temperature (°C) of the hind paws [4, 10]: 24,8 ± 0,35 °C
Temperature (°C) of the hind paws ([4]; 30 minutes from the treatment): 25,5 ± 0,21 °C
Temperature (°C) of the hind paws ([4]; 60 minutes from the treatment): 25,9 ± 0,25 °C
Temperature (°C) of the hind paws ([4]; 120 minutes from the treatment): 25,1 ± 0,30 °C

O=C(O)c1cccnc1 [Nicotinic acid, nicotinic acid]
Serum opt.density at the indicated times (M ± E.S.) ([5]; 3 h): 258 ± 14,9
Serum opt.density at the indicated times (M ± E.S.) ([5]; 6 h): 1312 ± 58,2
Serum opt.density at the indicated times (M ± E.S.) ([5]; 9 h): 1161 ± 53,2
Serum opt.density at the indicated times (M ± E.S.) ([5]; 12 h): 1000 ± 31,3
Serum opt.density at the indicated times (M ± E.S.) ([5]; 15 h): 510 ± 18,4
Serum opt.density at the indicated times (M ± E.S.) ([5]; 18 h): 250 ± 21,4
Tot.Cholesterol M ± E.S. [6, 11]: 215 ± 16 mg/100 ml
Tot.Lipids M ± E.S. [6, 11]: 1643 ± 131 mg/100 ml
Tot.Cholesterol % vs contr. ([6]; reduction): 39,9%
Tot.Lipids % vs contr. ([6]; reduction): 32,5%
Triglycerids M ± E.S. ([7]; dose 1,0 mM/kg/os once a day for 4 days, 4 hours after last treatment): 156,4 ± 18,1 mg/100 ml
Triglycerids % vs contr. positivi ([7]; dose 1,0 mM/kg/os, 4 hours after treatment): -24,7%
decrease (of triglycerides vs positive controls) ([7]; dose of 1 mM/kg per os): 24,7%
% variation vs positive controls (Trigliceridi) ([8]; 4 h): -29,4%
Trigliceridi ([8]; 4 h from the last treatment): 181,6 ± 15,7 mg/100 ml
% variation vs positive controls (Trigliceridi) ([8]; 6 h): -25,5%
Trigliceridi ([8]; 6 h from the last treatment): 176,0 ± 11,2 mg/100 ml
% variation vs positive controls (Trigliceridi) ([8]; 12 h): -10,3%
Trigliceridi ([8]; 12 h from the last treatment): 184,6 ± 8,9 mg/100 ml
% variation vs positive controls (Trigliceridi) ([8]; 16 h): -3,1%
Trigliceridi ([8]; 16 h from the last treatment): 180,7 ± 14,5 mg/100 ml
% variation vs positive controls (Trigliceridi) ([8]; 24 h): +7,9%
Trigliceridi ([8]; 24 h from the last treatment): 178,4 ± 9,7 mg/100 ml
Latency time, % variation vs controls [9]: +8,0%
Transmittance percentage, % variation vs controls [9]: -13,0%
Latency time (sec.) [9, 12]: 40,5 ± 4,0 sec.
Transmittance percentage (maximum aggregation) [9, 12]: 68,4 ± 5,2%
